In US8471005B2 (Cephalon, Inc., priority 2008, dated 2013):
Where two headings read alike, the source gives them in different places.

What was measured:
ALK = biological target: T1, ALK (Homo sapiens, UniProt Q9UM73); assay: ALK Kinase Assay (ELISA/TRF, PLC-γ substrate); assay type: biochemical; details: read-out: ALK Potency
T1 construct: host or cells: baculovirus expression system
Procedure, shortened: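 Wells were coated with 10 μg/mL phospholipase C-γ substrate in TBS, and the reaction was started by adding 30 ng/ml ALK enzyme and run at 37° C for 15 minutes. Phosphorylated product was detected with Eu-N1-labeled PT66 antibody, and IC50 values came from sigmoidal variable-slope fits of percent inhibition against log concentration.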

JAK2 = biological target: T2, JAK2 (Homo sapiens, UniProt O60674); assay: Recombinant Human JAK2 Kinase Assay (TRF); assay type: biochemical; details: read-out: JAK2 Potency
T2 construct: host or cells: baculovirus expression system
Procedure, shortened: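 Kinase activity of baculovirus-expressed JAK2 is followed on a surface-immobilised biotinylated peptide, with the reaction run for 20 min at room temperature in buffer containing 0.2 μM ATP and manganese. Phosphorylation is read with Eu-N1 PY100 antibody.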

[1] = ALK kinase inhibition, 1 μM ATP
[2] = JAK2 kinase inhibition, 0.2 μM ATP

T1 sequence (Q9UM73 19-1620): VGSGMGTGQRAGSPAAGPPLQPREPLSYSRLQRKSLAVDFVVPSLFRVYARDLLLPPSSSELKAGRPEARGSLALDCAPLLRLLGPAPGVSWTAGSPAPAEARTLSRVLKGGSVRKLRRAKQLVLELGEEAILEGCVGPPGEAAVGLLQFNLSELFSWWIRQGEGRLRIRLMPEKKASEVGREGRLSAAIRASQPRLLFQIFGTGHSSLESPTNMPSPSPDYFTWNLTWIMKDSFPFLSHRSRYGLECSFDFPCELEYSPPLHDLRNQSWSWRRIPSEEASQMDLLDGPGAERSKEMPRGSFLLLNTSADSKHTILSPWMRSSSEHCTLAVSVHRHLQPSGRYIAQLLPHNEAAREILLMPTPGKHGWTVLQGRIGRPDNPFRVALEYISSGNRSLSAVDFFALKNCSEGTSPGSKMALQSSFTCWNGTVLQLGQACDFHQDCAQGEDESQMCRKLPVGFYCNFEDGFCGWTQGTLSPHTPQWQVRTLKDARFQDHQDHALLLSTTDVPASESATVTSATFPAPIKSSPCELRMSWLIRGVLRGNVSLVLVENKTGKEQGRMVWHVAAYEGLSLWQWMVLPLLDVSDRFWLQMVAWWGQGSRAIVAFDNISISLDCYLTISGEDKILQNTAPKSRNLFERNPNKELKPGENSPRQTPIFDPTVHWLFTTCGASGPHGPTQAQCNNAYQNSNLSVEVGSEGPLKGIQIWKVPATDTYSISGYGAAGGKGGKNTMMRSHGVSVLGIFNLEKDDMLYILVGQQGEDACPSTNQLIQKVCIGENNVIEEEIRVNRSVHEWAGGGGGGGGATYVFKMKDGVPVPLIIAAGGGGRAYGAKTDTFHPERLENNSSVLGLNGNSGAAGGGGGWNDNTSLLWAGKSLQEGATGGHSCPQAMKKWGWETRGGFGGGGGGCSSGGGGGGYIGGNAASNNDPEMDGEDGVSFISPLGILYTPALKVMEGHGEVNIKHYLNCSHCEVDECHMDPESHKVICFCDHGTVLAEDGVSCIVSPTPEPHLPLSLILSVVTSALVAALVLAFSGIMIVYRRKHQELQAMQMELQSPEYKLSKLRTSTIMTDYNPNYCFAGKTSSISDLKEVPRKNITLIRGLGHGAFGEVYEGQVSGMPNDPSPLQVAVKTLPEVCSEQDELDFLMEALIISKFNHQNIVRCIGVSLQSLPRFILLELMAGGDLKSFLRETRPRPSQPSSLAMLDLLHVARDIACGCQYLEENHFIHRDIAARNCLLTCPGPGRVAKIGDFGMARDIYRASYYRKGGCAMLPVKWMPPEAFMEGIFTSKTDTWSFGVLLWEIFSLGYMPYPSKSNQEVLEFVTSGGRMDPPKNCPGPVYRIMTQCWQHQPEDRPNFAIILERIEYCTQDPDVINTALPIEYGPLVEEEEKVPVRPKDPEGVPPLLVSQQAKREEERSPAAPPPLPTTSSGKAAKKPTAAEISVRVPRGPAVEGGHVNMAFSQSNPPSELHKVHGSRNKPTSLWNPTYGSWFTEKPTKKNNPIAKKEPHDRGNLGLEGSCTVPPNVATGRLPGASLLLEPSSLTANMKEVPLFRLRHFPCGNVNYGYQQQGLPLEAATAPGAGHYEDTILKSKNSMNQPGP
T2 sequence (O60674 whole entry): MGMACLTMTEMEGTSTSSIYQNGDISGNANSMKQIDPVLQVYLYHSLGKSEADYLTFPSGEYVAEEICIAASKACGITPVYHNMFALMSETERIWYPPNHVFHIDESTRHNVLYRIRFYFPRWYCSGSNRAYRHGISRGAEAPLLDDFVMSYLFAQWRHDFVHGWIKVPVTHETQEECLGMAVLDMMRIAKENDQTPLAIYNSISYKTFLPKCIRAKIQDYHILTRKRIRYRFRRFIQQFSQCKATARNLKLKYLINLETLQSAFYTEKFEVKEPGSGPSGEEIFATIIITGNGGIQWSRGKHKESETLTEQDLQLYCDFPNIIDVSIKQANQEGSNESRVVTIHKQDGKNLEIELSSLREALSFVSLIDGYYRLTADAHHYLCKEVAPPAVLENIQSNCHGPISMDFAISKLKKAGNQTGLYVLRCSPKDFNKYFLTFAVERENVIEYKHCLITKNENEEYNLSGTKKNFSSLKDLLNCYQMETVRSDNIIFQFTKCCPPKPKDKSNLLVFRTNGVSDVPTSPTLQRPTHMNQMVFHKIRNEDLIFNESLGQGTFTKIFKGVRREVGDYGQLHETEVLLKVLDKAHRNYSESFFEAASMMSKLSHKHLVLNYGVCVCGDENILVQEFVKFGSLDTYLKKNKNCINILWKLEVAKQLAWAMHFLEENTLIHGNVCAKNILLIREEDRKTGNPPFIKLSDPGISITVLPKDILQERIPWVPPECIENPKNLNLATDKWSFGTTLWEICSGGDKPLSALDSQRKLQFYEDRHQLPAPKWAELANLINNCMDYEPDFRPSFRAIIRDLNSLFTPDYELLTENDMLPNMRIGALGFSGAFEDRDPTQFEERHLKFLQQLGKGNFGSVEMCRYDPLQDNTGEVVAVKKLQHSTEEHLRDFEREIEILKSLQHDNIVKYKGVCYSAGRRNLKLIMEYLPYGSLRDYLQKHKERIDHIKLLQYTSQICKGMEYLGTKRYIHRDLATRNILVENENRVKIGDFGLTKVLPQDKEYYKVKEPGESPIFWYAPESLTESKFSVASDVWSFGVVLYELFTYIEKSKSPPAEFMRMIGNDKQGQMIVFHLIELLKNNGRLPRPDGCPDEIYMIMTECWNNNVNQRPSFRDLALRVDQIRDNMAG

SMILES	IC50 (ALK; [1]) [nM]	IC50 (JAK2; [2]) [nM]	IC50 (ALK; ALK Kinase Inhibition) [nM]	IC50 (JAK2; JAK2 Kinase Inhibition) [nM]
CS(=O)(=O)c1ccc(-c2ccc3cnc(Nc4ccc5nc(C(F)(F)F)[nH]c5c4)nn23)cc1 [Example 1302, [7-(4-Methanesulfonyl-phenyl)-pyrrolo[2,1-f][1,2,4]triazin-2-yl]-(2-trifluoromethyl-3H-benzimidazol-5-yl)-amine]	> 10000	< 100	–	–
COc1ccccc1-c1ccc2cnc(Nc3ccc(N4CCOCC4)cc3F)nn12 [Example 370, (2-Fluoro-4-morpholin-4-yl-phenyl)-[7-(2-methoxy-phenyl)-pyrrolo[2,1-f][1,2,4]triazin-2-yl]-amine]	–	–	100 to 1000	< 100
COc1ccccc1-c1ccc2cnc(Nc3ccc(N4CCOCC4)nc3)nn12 [Example 47, [7-(2-Methoxy-phenyl)-pyrrolo[2,1-f][1,2,4]triazin-2-yl]-(6-morpholin-4-yl-pyridin-3-yl)-amine]	–	–	100 to 1000	< 100
CC(C)(C)NS(=O)(=O)c1cccc(-c2ccc3cnc(Nc4ccc5[nH]ncc5c4)nn23)c1 [Example 1315, N-tert-Butyl-3-[2-(1H-indazol-5-ylamino)-pyrrolo[2,1-f][1,2,4]triazin-7-yl]-benzenesulfonamide]	1000 to 10000	< 100	–	–
COc1ccc(Cl)cc1-c1ccc2cnc(Nc3ccc4c(c3)CC(=O)N4C)nn12 [Example 360, 5-[7-(5-Chloro-2-methoxy-phenyl)-pyrrolo[2,1-f][1,2,4]triazin-2-ylamino]-1-methyl-1,3-dihydro-indol-2-one]	–	–	100 to 1000	< 100

Next, values leading:

IC50 (ALK; [1]) [nM]	IC50 (JAK2; [2]) [nM]	IC50 (ALK; ALK Kinase Inhibition) [nM]	IC50 (JAK2; JAK2 Kinase Inhibition) [nM]	SMILES
1000 to 10000	< 100	–	–	O=S(=O)(CC1CC1)c1cccc(-c2ccc3cnc(Nc4ccc5nc[nH]c5c4)nn23)c1 [Example 1319, (3H-Benzimidazol-5-yl)-[7-(3-cyclopropylmethanesulfonyl-phenyl)-pyrrolo[2,1-f][1,2,4]triazin-2-yl]-amine]
100 to 1000	< 100	–	–	CN1CCC(c2ccc(Nc3ncc4ccc(-c5cccc(S(=O)(=O)N6CCCC6)c5)n4n3)cc2)CC1 [Example 903, [4-(1-Methyl-piperidin-4-yl)-phenyl]-{7-[3-(pyrrolidine-1-sulfonyl)-phenyl]-pyrrolo[2,1-f][1,2,4]triazin-2-yl}-amine]
100 to 1000	< 100	–	–	COc1ccccc1-c1ccc2cnc(Nc3ccc4c(cnn4CCN4CCOCC4)c3)nn12 [Example 1346, [7-(2-Methoxy-phenyl)-pyrrolo[2,1-f][1,2,4]triazin-2-yl]-[1-(2-morpholin-4-yl-ethyl)-1H-indazol-5-yl]-amine]
< 100	1000 to 10000	–	–	COc1cc(C2CCN(CC(N)=O)CC2)ccc1Nc1ncc2ccc(-c3cccnc3N(C)S(C)(=O)=O)n2n1 [Example 1257, 2-[4-(4-{7-[2-(Methanesulfonyl-methyl-amino)-pyridin-3-yl]-pyrrolo[2,1-f][1,2,4]triazin-2-ylamino}-3-methoxy-phenyl)-piperidin-1-yl]-acetamide]
< 100	100 to 1000	–	–	COc1cc(C2CCN(C(=O)C(C)(C)N)CC2)ccc1Nc1ncc2ccc(-c3ccccc3OC)n2n1 [Example 821, 2-Amino-1-(4-{3-methoxy-4-[7-(2-methoxy-phenyl)-pyrrolo[2,1-f][1,2,4]triazin-2-ylamino]-phenyl}-piperidin-1-yl)-2-methyl-propan-1-one]
100 to 1000	< 100	–	–	CN1CCCC1COc1cccc(Nc2ncc3ccc(-c4cnn(C)c4)n3n2)c1 (stereo not drawn) [Example 1007, [7-(1-Methyl-1H-pyrazol-4-yl)-pyrrolo[2,1-f][1,2,4]triazin-2-yl]-[3-(1-methyl-pyrrolidin-2-ylmethoxy)-phenyl]-amine]
< 100	100 to 1000	–	–	COc1cc(CCN2CCOCC2)ccc1Nc1ncc2ccc(-c3ccccc3N(C)S(C)(=O)=O)n2n1 [Example 493, N-(2-{2-[2-Methoxy-4-(2-morpholin-4-yl-ethyl)-phenylamino]-pyrrolo[2,1-f][1,2,4]triazin-7-yl}-phenyl)-N-methyl-methanesulfonamide]
